Assay results: patent US8969556B2, “Purine-based triazoles” (Case Western Reserve University, priority 2010, dated 2015)
“Also recorded” adds a separate entry of the source.

System: hippocampal slice cultures
Test: Aβ oligomer-induced neuronal cell death by PI staining (PI uptake) in hippocampal slice cultures
Settings: compound 1 μM, 1 h pretreatment, then Aβ oligomers 5 μM, 48 h; mouse hippocampal slices
Protocol: In this Example, we used a convenient assay for neuronal cell death, which was induced by incubation with Aβ oligomers in hippocampal slice cultures. The binding of propidium iodide (PI) with DNA of dead cells gives characteristic fluorescence that could be followed by fluorescence microscopy. Since PI is impermeable to live cell membranes, the observed fluorescence is indicative of the extent of dead cell populations.
1.0 mg of Δβ1-42 peptide was dissolved in 120 μL of hexafluoroisopropanol for 60 min at room temperature, and placed back on ice for 5-10 min. Hexafluoroisopropanol was evaporated overnight in the hood at room temperature. The sample was dissolved by 100% DMSO by adding 20 μL of fresh anhydrous DMSO (Sigma Hybri-Max) to 0.45 mg of the peptide, and diluted to 5 mM peptide stock into medium. Diluted peptide was incubated at 4° C. for 24 h, and then centrifuged at 14,000 g for 10 min in the cold. Before treating slice culture with Δβ oligomers, the oligomers were incubated at room temperature for 20 h.
Hippocampal slice cultures were prepared from 7-10 day-old mouse pups. Slices were cut at 400 μm on a Mcllwain tissue chopper, transferred to Millicell (Millipore Corp., Bedford, Mass.) membrane inserts (0.4 μm), and placed in 6-well culture plated. The upper surfaces of the slices were exposed to a humidified 37° C. atmosphere containing 5% CO2. Slice culture media consisted of basal Eagles medium with Earle's balanced salt solution, 20% heat-inactivated horse serum, enriched with glucose to a concentration of 5.6 mM. The medium was changed every other day. Slices were examined periodically for viability, and any dark or abnormal slices were discarded.
The effects of Δβ oligomers were tested in the slices which had been maintained for 15-20 days in vitro. All reagents were added to serum free medium (no horse serum). Δβ oligomers were added to cultures in serum free medium. Vehicles were treated the same way except with no peptide.
To analyze the degree of hippocampal neuronal cell death, hippocampal slices were stained by adding PI into slice culture medium at a concentration of 5 μg/mL. At indicated times after Δβ oligomers treatment, the degree of hippocampal neuronal death was evaluated by microscopic observation of PI uptake as described previously. […] The intensity of the fluorescence was quantitatively analyzed using Scion Image. The images were expressed as an arbitrary unit of PI uptake.
Mouse hippocampal slice cultures were treated with Aβ oligomers in the presence of PI as the staining agent. The degree of hippocampal neuronal death was monitored by fluorescence microscopic observation of the PI uptake. The intensities of the fluorescence were conveniently analyzed using Scion images. The intensity of the PI fluorescence reflects the relative number of the dead cells, since PI cannot permeate the live cell membranes.

SMILES | neuroprotective effect against Aβ-induced neurotoxicity (neuronal cell survival, PI uptake)
Clc1nc(NCc2ccccc2)c2ncn(Cc3cn(Cc4ccccc4)nn3)c2n1 [Compound 6, 2-Chloro-6-benzylamino-9-(1-benzyl-1H-1,2,3-triazol-4-yl-methyl)purine] | only marginal effects
Fc1ccccc1Cn1cc(Cn2cnc3c(NCc4ccccc4)nc(Cl)nc32)nn1 [Compound 7, 2-Chloro-6-benzylamino-9-[1-(2-fluorobenzyl)-1H-1,2,3-triazol-4-yl-methyl]purine] | neuronal cell survival rates comparable to those of the control experiments; also recorded: effectively suppressed Aβ-induced neurotoxicity
Fc1cccc(F)c1Cn1cc(Cn2cnc3c(NCc4ccccc4)nc(Cl)nc32)nn1 [Compound 8, 2-Chloro-6-benzylamino-9-[1-(2,6-difluorobenzyl)-1H-1,2,3-triazol-4-yl-methyl]purine] | only marginal effects
Fc1c(F)c(F)c(Cn2cc(Cn3cnc4c(NCc5ccccc5)nc(Cl)nc43)nn2)c(F)c1F [Compound 9, 2-Chloro-6-benzylamino-9-[1-(pentafluorobenzyl)-1H-1,2,3-triazol-4-yl-methyl]purine] | virtually no neuroprotective effect
CN1CC[C@H](c2c(O)cc(O)c3c(=O)cc(-c4ccccc4Cl)oc23)[C@H](O)C1 [Flavopiridol, reference compound] | neuronal cell survival rates comparable to those of the control experiments
CC[C@H](CO)Nc1nc(NCc2ccccc2)c2ncn(C(C)C)c2n1 [Roscovitine, reference compound] | neuronal cell survival rates comparable to those of the control experiments
